Here are results for one molecule from US20050038022A1, “Method for treatment of cancer and compositions for use therein” (Unisearch Limited, priority 2001, published 2005).

The conditions of series [1]: sulphoxide metabolite after oral albendazole, man; cited from earlier work.
The test system of series [2] is liver, colorectal, prostate and leukeamic cell lines. Kind of series: Albendazole/ABS side by side in various cell lines (general). The series is classed as cell-based. As to the method:
(§1) In order to be able to test ABS, a proper solvent had to be found. […] Therefore to allow direct comparison between the 2 compounds, all subsequent experiments were run using 0.5% DMSO for both ABS and albendazole. In the cell lines examined, albendazole produced very similar results to what we had previously reported for the drug in liver cancer cells.
(§2) Both albendazole and ABS were tested side by side against various cell lines as follows: • Liver—HepGZ Hep3B, SKHEP-1 • Colorectal—170, LOVO, HT-29 • Prostate—PC3, LNCap, Du145 • Leukeamic—HL60
The fist 9 cell lines were used to compare effectiveness and potency while, the last one was used to assess toxicity on bone marrow (as a rough guide).
(§3) Cells were treated with various concentrations of each compound for a period of 5 days.

The subject of series [3] is C-170, LOVO and HT-29. Kind of series: Albendazole/ABS proliferation test, colorectal cell lines. The series is classed as cell-based. The conditions noted are these: C-170, LOVO and HT-29, 5 days, 0.5% DMSO. As to the method: as §1, §2, §3
In series [4] the test system is HepG2, SKHEP-1 and Hep 3B. The series can be described thus: Albendazole/ABS proliferation test, liver cancer cells. The series is classed as cell-based, human. To be noted: 5 days, 0.5% DMSO. Here is the method:
as §1, §2, §3

The subject of series [5] is PC3, LNCap and Du 145. The series can be described thus: Albendazole/ABS proliferation test, prostate cancer cells. The series is classed as cell-based, human. To be noted: PC3, LNCap and Du 145; ABS compared with albendazole. Here is the method:
as §1, §2, §3

Series [6] is described as follows: Solubility in solvent. The format is physicochemical.
Description: as §1

Take `CCC[S+]([O-])c1ccc2[nH]c(NC(=O)OC)nc2c1` (stereo not shown) [ABS, albendazole sulphoxide]: in series [1], the peak plasma concentrations was 200 to 300 ng/mL and the plasma half life is 8 to 9 h. Moreover, in series [2] (0.25 micromoles/L, 5 days), the “antiproliferative activity at 0.25 micromoles/L” value is listed as “dramatically increasing”. Also, the “effectiveness compared with parent drug” value in series [2] (10 different cell lines, earlier results, latest results cast doubt) is recorded as “as effective as the parent drug”. The molecule further returned an inhibition at 1 µM in series [2] (120 h, 1 micromoles/L, 5 days) of about 100%. The “concentration at which antiproliferative activity becomes evident” value in series [2] (5 days, 0.5% DMSO, in general) worked out at 0.01 µmol/L. The “activity against colorectal cell lines” value in series [3] is reported as “same sort of activity”. Further, the “proliferation of human liver cancer cells” value in series [4] is given as “inhibit proliferation”. Besides, the “potency in inhibiting proliferation, metabolite versus drug” value in series [5] is recorded as “almost equipotent”. In addition, the solubility in ethanol entry in series [6] is recorded as “not soluble in ethanol”.
